Data from PMC9090415, “Discovery of small molecule inhibitors of Plasmodium falciparum apicoplast DNA polymerase” (Journal of Enzyme Inhibition and Medicinal Chemistry, 2022).

Biological target: T1, bacteriophage T4 DNA polymerase (Enterobacteria phage T4, UniProt P04415)
T1 construct: made in house
T1 sequence (P04415 1-898): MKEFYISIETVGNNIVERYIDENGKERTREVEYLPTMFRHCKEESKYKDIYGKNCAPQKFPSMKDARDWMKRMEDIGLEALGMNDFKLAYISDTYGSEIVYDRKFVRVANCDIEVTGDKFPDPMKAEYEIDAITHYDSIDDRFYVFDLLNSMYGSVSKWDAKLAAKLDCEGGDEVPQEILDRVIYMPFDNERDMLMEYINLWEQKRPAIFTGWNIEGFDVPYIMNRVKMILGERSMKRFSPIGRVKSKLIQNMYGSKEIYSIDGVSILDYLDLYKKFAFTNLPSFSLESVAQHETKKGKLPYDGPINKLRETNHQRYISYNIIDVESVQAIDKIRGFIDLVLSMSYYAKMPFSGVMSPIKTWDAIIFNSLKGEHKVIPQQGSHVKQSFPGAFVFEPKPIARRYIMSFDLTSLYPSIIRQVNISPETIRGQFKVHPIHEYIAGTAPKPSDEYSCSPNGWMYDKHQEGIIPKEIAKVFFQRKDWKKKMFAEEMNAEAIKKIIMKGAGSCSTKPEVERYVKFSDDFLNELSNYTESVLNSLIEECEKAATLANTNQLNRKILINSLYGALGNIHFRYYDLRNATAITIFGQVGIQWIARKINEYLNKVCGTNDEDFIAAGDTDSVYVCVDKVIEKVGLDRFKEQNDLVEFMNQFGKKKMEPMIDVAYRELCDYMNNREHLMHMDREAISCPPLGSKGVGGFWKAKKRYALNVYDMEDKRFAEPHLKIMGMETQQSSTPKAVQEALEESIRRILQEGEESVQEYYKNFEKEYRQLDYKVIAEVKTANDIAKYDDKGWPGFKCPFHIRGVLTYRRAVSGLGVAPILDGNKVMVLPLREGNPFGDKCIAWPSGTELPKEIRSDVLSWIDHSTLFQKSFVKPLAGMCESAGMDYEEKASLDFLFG
Test: Counter-screen against bacteriophage T4 DNA polymerase
Assay type: biochemical
Conditions: for % inhibition T4 10' 2.5 / % inhibition T4 10' 5 / % inhibition T4 10' 10 / % inhibition T4 10' 20 / % inhibition T4 10' 40 / % inhibition T4 10' 80: read at 10'
How it was run: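 IC50 values come from dose-response testing of each compound against T4 DNA polymerase. This B-family polymerase was purified in-house and used as the counter-screen.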

Cc1ccccc1C(=O)N1CCc2c(nc3cc(-c4ccccc4)[nH]n3c2=O)C1 [Molecule 41, Cc1ccccc1C(=O)N1CCc2c(C1)nc1n(c2=O)[nH]c(c1)c1ccccc1]
% inhibition T4 10' (DRC-2, concentration 2.5): 10% | % inhibition T4 10' (DRC-2, concentration 5): 13% | % inhibition T4 10' (DRC-2, concentration 10): 5% | % inhibition T4 10' (DRC-2, concentration 20): -10% | % inhibition T4 10' (DRC-2, concentration 40): -26% | % inhibition T4 10' (DRC-2, concentration 80): -46% | % inhibition T4 40' (DRC-2, concentration 2.5): 10% | % inhibition T4 40' (DRC-2, concentration 5): 13% | % inhibition T4 40' (DRC-2, concentration 10): 5% | % inhibition T4 40' (DRC-2, concentration 20): -10% | % inhibition T4 40' (DRC-2, concentration 40): -26% | % inhibition T4 40' (DRC-2, concentration 80): -46%

O=C1c2ccccc2C(=O)N1Oc1ccc([N+](=O)[O-])c([N+](=O)[O-])c1 [Molecule 66, O=N(=O)c1cc(ccc1N(=O)=O)ON1C(=O)c2c(C1=O)cccc2]
% inhibition T4 10' (DRC-2, concentration 2.5): -5% | % inhibition T4 10' (DRC-2, concentration 5): -4% | % inhibition T4 40' (DRC-2, concentration 2.5): -5% | % inhibition T4 90' (DRC-2, concentration 5): -4%

O=[N+]([O-])c1ccc(/C=C/c2ccc3ccccc3n2)o1 [Molecule 21, O=N(=O)c1ccc(o1)/C=C/c1ccc2c(n1)cccc2]
% inhibition T4 10' (DRC-2, concentration 2.5): 23% | % inhibition T4 10' (DRC-2, concentration 5): 25% | % inhibition T4 40' (DRC-2, concentration 2.5): 25% | % inhibition T4 40' (DRC-2, concentration 20): 37% | % inhibition T4 40' (DRC-2, concentration 80): 32% | % inhibition T4 90' (DRC-2, concentration 2.5): 23% | % inhibition T4 90' (DRC-2, concentration 10): 32% | % inhibition T4 90' (DRC-2, concentration 80): 37% | % inhibition T4 180' (DRC-2, concentration 10): 25% | % inhibition T4 180' (DRC-2, concentration 40): 37%

CC(C)(C)OC(=O)COc1ccc2cc(-c3ccccc3)c(=O)oc2c1 [Molecule 81, O=C(OC(C)(C)C)COc1ccc2c(c1)oc(=O)c(c2)c1ccccc1]
% inhibition T4 10' (DRC-2, concentration 10): 13% | % inhibition T4 10' (DRC-2, concentration 40): 7% | % inhibition T4 40' (DRC-2, concentration 2.5): 16% | % inhibition T4 40' (DRC-2, concentration 5): 13% | % inhibition T4 40' (DRC-2, concentration 10): 10% | % inhibition T4 40' (DRC-2, concentration 20): 6% | % inhibition T4 40' (DRC-2, concentration 80): 6% | % inhibition T4 90' (DRC-2, concentration 2.5): 16% | % inhibition T4 90' (DRC-2, concentration 5): 13% | % inhibition T4 90' (DRC-2, concentration 10): 10% | % inhibition T4 90' (DRC-2, concentration 20): 6% | % inhibition T4 180' (DRC-2, concentration 2.5): 13% | % inhibition T4 180' (DRC-2, concentration 10): 7%

CC(=O)c1cc2c(N)c(/C(N)=N/C#N)sc2nc1C [KU0015866]
% inhibition T4 10' (DRC-2, concentration 2.5): -16% | % inhibition T4 10' (DRC-2, concentration 5): -17% | % inhibition T4 10' (DRC-2, concentration 10): -18% | % inhibition T4 10' (DRC-2, concentration 20): -17% | % inhibition T4 10' (DRC-2, concentration 40): -11% | % inhibition T4 10' (DRC-2, concentration 80): -21% | % inhibition T4 40' (DRC-2, concentration 2.5): -16% | % inhibition T4 40' (DRC-2, concentration 5): -17% | % inhibition T4 40' (DRC-2, concentration 10): -18% | % inhibition T4 40' (DRC-2, concentration 20): -17% | % inhibition T4 40' (DRC-2, concentration 40): -11% | % inhibition T4 40' (DRC-2, concentration 80): -21% | % inhibition T4 90' (DRC-2, concentration 5): -16% | % inhibition T4 90' (DRC-2, concentration 10): -18% | % inhibition T4 90' (DRC-2, concentration 20): -18% | % inhibition T4 90' (DRC-2, concentration 40): -11% | % inhibition T4 90' (DRC-2, concentration 80): -20% | % inhibition T4 180' (DRC-2, concentration 2.5): -20% | % inhibition T4 180' (DRC-2, concentration 5): -23% | % inhibition T4 180' (DRC-2, concentration 20): -23% | % inhibition T4 180' (DRC-2, concentration 40): -16%

O=C(CCc1csc(NC(=O)Nc2ccccc2)n1)Nc1nc2ccccc2s1 [KU0177354]
% inhibition T4 10' 2.5 (DRC-1, concentration 2.5): 0.07751% | % inhibition T4 10' 5 (DRC-1, concentration 5): 7.751% | % inhibition T4 10' 10 (DRC-1, concentration 10): 13.5789% | % inhibition T4 10' 20 (DRC-1, concentration 20): 14.0599% | % inhibition T4 10' 40 (DRC-1, concentration 40): 17.0084% | % inhibition T4 10' 80 (DRC-1, concentration 80): 35.4647% | % inhibition T4 70' 2.5 (DRC-1, read at 70', concentration 2.5): 1.62% | % inhibition T4 70' 5 (DRC-1, read at 70', concentration 5): 6.65% | % inhibition T4 70' 10 (DRC-1, read at 70', concentration 10): 12.106% | % inhibition T4 70' 20 (DRC-1, read at 70', concentration 20): 12.7058% | % inhibition T4 70' 40 (DRC-1, read at 70', concentration 40): 16.9924% | % inhibition T4 70' 80 (DRC-1, read at 70', concentration 80): 32.2475% | % inhibition T4 130' 2.5 (DRC-1, read at 130', concentration 2.5): -0.4187% | % inhibition T4 130' 5 (DRC-1, read at 130', concentration 5): 3.945% | % inhibition T4 130' 10 (DRC-1, read at 130', concentration 10): 9.972% | % inhibition T4 130' 20 (DRC-1, read at 130', concentration 20): 11.4415% | % inhibition T4 130' 40 (DRC-1, read at 130', concentration 40): 15.4247% | % inhibition T4 130' 80 (DRC-1, read at 130', concentration 80): 30.1254% | % inhibition T4 10' 2.5 (DRC-2, concentration 2.5): -8% | % inhibition T4 10' 5 (DRC-2, concentration 5): 2.7% | % inhibition T4 10' 10 (DRC-2, concentration 10): 9% | % inhibition T4 10' 20 (DRC-2, concentration 20): 6.49% | % inhibition T4 10' 40 (DRC-2, concentration 40): 5.57% | % inhibition T4 10' 80 (DRC-2, concentration 80): 11% | % inhibition T4 40' 2.5 (DRC-2, read at 40', concentration 2.5): -8% | % inhibition T4 40' 5 (DRC-2, read at 40', concentration 5): 2% | % inhibition T4 40' 10 (DRC-2, read at 40', concentration 10): 9% | % inhibition T4 40' 20 (DRC-2, read at 40', concentration 20): 5.69% | % inhibition T4 40' 40 (DRC-2, read at 40', concentration 40): 5% | % inhibition T4 40' 80 (DRC-2, read at 40', concentration 80): 14% | % inhibition T4 90' 2.5 (DRC-2, read at 90', concentration 2.5): -7% | % inhibition T4 90' 5 (DRC-2, read at 90', concentration 5): 3% | % inhibition T4 90' 10 (DRC-2, read at 90', concentration 10): 8.56% | % inhibition T4 90' 20 (DRC-2, read at 90', concentration 20): 5.54% | % inhibition T4 90' 40 (DRC-2, read at 90', concentration 40): 5% | % inhibition T4 90' 80 (DRC-2, read at 90', concentration 80): 17% | % inhibition T4 180' 2.5 (DRC-2, read at 180', concentration 2.5): -11% | % inhibition T4 180' 5 (DRC-2, read at 180', concentration 5): -1.4% | % inhibition T4 180' 10 (DRC-2, read at 180', concentration 10): 3% | % inhibition T4 180' 20 (DRC-2, read at 180', concentration 20): 1.84% | % inhibition T4 180' 40 (DRC-2, read at 180', concentration 40): 2.2% | % inhibition T4 180' 80 (DRC-2, read at 180', concentration 80): 18%
